The numbers were not newly measured in patent publication US11998629B2, “Method for dyeing keratinous material, comprising the use of an organosilicon compound, an effect pigment and a film-forming polymer” (Henkel AG & Co. KGaA, priority 2019, dated 2024), which cites them from elsewhere.

The conditions of the series: 25° C.

Turning to `CCN(Cc1cccc(S(=O)(=O)[O-])c1)c1ccc(C(=C2C=CC(=[N+](CC)Cc3cccc(S(=O)(=O)[O-])c3)C=C2)c2ccccc2S(=O)(=O)[O-])cc1.[Na+].[Na+]` [Acid Blue 9], the water solubility result is reported as “greater than 20 % by weight”.

For the compound `O=S(=O)([O-])c1ccc(N=Nc2c(O)ccc3ccccc23)cc1.[Na+]` [Acid Orange 7, sodium salt of 4-[(2-hydroxy-1-naphthyl)azo]benzenesulfonate], the solubility in water entry was “more than 7 g/L”.

For `Nc1cc(S(=O)(=O)[O-])cc2cc(S(=O)(=O)[O-])c(N=Nc3ccccc3)c(O)c12.[Na+].[Na+]` [Acid Red 33, disodium salt of 5-amino-4-hydroxy-3-(phenylazo)-naphthalene-2,7-disulphonate], the solubility in water was 2.5 mg/mL.

As to `O=C([O-])c1c(Cl)c(Cl)c(Cl)c(Cl)c1-c1c2c(Br)cc(=O)c(Br)c-2oc2c(Br)c(O)cc(Br)c12.O=C([O-])c1c(Cl)c(Cl)c(Cl)c(Cl)c1-c1c2c(Br)cc(=O)c(Br)c-2oc2c(Br)c(O)cc(Br)c12.[Na+].[Na+]` [Acid Red 92, disodium salt of 3,4,5,6-tetrachloro-2-(1,4,5,8-tetrabromo-6-hydroxy-3-oxoxanthen-9-yl)benzoic acid], the solubility in water result is recorded as “greater than 10 g/L”.

For the compound `O=C([O-])C1=NN(c2ccc(S(=O)(=O)[O-])cc2)C(=O)C1N=Nc1ccc(S(=O)(=O)[O-])cc1.[Na+].[Na+].[Na+]` (stereo not drawn) [Acid Yellow 23, trisodium salt of 4,5-dihydro-5-oxo-1-(4-sulfophenyl)-4-((4-sulfophenyl)azo)-1H-pyrazole-3-carboxylic acid], the “solubility in water (in words)” value was “readily soluble”.

In the case of “mixture of the sodium salts of mono- and disulfonic acids of 2-(2-quinolyl)-1H-indene-1,3(2H)-dione [Acid Yellow 3]”, the solubility in water was 20 mg/mL.
